Experimental findings from publication PMC6933146 (Biotechnology Reports, 2019) are described below.

Format in all cases: biochemical, Alcaligenes faecalis
For test [1], the system named is LAC1* (purified extracellular laccase). Kind of test: spectrophotometric oxidation. Conditions: optimized conditions (optimum pH for ABTS 5.5), 50-500 μM substrate.
The test system is the same in test [2]. The test can be described thus: spectrophotometric oxidation. Conditions: optimized conditions (optimum pH for guaiacol 8), 50-500 μM substrate.
The test system is the same in test [3]. The test can be described thus: spectrophotometric oxidation at […] nm, Lineweaver-Burk. The following applies: pH 8.0, 80 °C, 50-500 μM substrate.

Molecules are shown by their SMILES.

Consider `CCn1c(=NN=c2sc3cc(S(=O)(=O)O)ccc3n2CC)sc2cc(S(=O)(=O)O)ccc21` [ABTS], for which the Michaelis constant (Km) in test [1] is 500 µM.

Turning to `COc1ccccc1O` [Guaiacol], the Km in test [2] came to 1000 µM.

As to `COc1cccc(OC)c1O` [2,6-DMP], in test [3], the Km was found to be 480 µM.
